The term Ki denotes a measure of affinity in units of concentration, obtained from inhibition or displacement.

The results in this text go back to patent US5382670A, “Platelet activating factor antagonists” (priority 1993, dated 1995).

This test concerns the target PAF receptor (Oryctolagus cuniculus, UniProt G1TEI7). Put plainly: PAF receptor binding assay: inhibition of specific [3H]C18-PAF binding to rabbit platelet membranes. In outline:
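Rabbit platelet membranes (10 μg protein) incubated 60 min at 22-23 °C with 0.6 nM [3H]C18-PAF in TME buffer pH 7.0 plus 0.25% BSA; nonspecific binding with 1 μM PAF. Filtered bound radioactivity counted; IC50 by point-to-point evaluation from ≥4 doses in triplicate, Ki by Cheng-Prusoff.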

The mark [1] stands for this setting: Ki (PAF Receptor Binding Activity), 0.6 nM [3H]C18-PAF, 60 min, 22-23 °C, Ki from IC50 (Cheng and Prusoff).

Where a name gives a salt, the structure may show the parent alone. Read-outs that look alike come from different tables or passages of the source.

Chain of PAF receptor (G1TEI7 1-342): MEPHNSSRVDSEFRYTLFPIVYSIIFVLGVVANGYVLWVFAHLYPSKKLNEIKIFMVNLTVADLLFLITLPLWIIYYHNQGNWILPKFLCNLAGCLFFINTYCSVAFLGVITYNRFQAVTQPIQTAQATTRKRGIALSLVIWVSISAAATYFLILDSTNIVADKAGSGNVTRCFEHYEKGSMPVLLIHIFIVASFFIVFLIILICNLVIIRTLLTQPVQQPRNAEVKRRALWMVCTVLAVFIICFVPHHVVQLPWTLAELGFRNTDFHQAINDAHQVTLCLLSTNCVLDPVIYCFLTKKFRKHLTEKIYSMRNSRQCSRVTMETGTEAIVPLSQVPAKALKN

For `O=C(O)CCn1cc(C(=O)C2CSC(c3cccnc3)N2)c2ccccc21` (centres unmarked) [Example 119, 1-carboxyethyl-3-[2-(3-pyridinyl)thiazolid-4-oyl]indole], the affinity under setting [1] corresponds to a Ki of 20 nM.

With `O=C(O)Cn1cc(C(=O)C2CSC(c3cccnc3)N2)c2ccccc21` (centres unmarked) [Example 120, 1-carboxymethyl-3-[2-(3-pyridinyl)thiazolid-4-oyl]indole], the Ki under setting [1] was 19 nM.

On to `NC(=O)CCn1cc(C(=O)C2CSC(c3cccnc3)N2)c2ccccc21` (centres unmarked) [Example 121], for which the Ki (read-out: Ki (PAF Receptor Binding Activity), 0.6 nM [3H]C18-PAF, 60 min, 22-23 °C, Ki from IC50 (Cheng and Prusoff)) stood at 6 nM.

For `COC(=O)c1ccc2c(C(=O)C3CSC(c4cccnc4)N3)c[nH]c2c1` (centres unmarked) [Example 122, 3-[2-(3-pyridinyl)thiazolid-4-oyl]-6-carbomethoxyindole], the Ki under setting [1] was found to be 400 nM.

Take `CN(C)C(=O)n1cc(C(=O)C2CSC(c3cccnc3)N2)c2ccc(OCc3ccccc3)cc21` (centres unmarked) [Example 123, 1-dimethylcarbamoyl-3-[2-(3-pyridinyl)thiazolid-4-oyl]-6-phenylmethoxyindole oxalate]: the Ki (0.6 nM [3H]C18-PAF, 60 min, 22-23 °C, Ki from IC50 (Cheng and Prusoff), read-out: Ki (PAF Receptor Binding Activity)) was 2 nM.
